From PMC12581733, “Microbial Transglutaminase Increases Uptake and Translocation of Gliadin Peptides in the Human Intestinal Epithelium” (Molecular Nutrition & Food Research, 2025)

How the values were obtained:
Caco‐2 cells [1] = conditions: inhibitor 100 µM, TG2 100 nM; immunofluorescence microscopy
TG2 [2] = target: T1, TG2 (Homo sapiens, UniProt P21980); experiment: In vitro transamidation (crosslinking) of gliadin peptides, indirect ELISA, TG2; format: biochemical; conditions: inhibitor 100 µM, Fig. 1A
T1 construct: purchased Zedira T022
T1 sequence (P21980 1-687): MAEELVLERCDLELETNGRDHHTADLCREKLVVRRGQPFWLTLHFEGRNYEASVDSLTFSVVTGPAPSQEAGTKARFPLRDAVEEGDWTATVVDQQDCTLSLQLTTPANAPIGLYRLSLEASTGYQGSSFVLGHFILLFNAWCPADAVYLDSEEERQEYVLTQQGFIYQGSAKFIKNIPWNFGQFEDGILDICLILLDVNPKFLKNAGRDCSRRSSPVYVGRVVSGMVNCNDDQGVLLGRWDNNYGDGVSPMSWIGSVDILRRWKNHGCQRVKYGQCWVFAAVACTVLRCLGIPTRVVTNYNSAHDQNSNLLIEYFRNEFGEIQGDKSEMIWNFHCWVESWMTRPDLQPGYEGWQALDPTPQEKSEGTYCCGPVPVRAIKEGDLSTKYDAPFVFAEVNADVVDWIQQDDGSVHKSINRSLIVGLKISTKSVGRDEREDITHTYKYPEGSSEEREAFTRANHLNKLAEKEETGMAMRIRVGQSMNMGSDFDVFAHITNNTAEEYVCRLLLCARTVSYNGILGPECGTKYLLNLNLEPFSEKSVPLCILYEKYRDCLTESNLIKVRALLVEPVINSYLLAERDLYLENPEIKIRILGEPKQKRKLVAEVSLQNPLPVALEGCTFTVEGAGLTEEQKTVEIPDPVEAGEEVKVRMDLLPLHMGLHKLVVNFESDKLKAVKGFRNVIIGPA
Protocol: TG2 (10 nM, T022, Zedira, Darmstadt, Germany) or mTG (10 nM, T001, Zedira) were immobilized on a 96‐well plate (Sarstedt, Nümbrecht, Germany) in 50 mM Tris, 1 mM ethylenediamine tetraacetic acid (EDTA), 5 mM calcium chloride (pH 7.5) buffer containing 10 mM dithiotreitol (DTT, Merck KGaA, Darmstadt, Germany). After blocking with 2% bovine serum albumin (BSA, Carl Roth GmbH, Karlsruhe, Germany), the transglutaminase inhibitors ERW1041 (5095220001, Sigma–Aldrich, Darmstadt, Germany) and mTG‐blocker (C102, Zedira, each 100 µM) were applied according to protocol. Immobilized transglutaminases were incubated with biotin‐conjugated gliadin peptides or pepsin/trypsin digested gliadin (PTG, Table 2). Detection of crosslinked biotinylated gliadin peptides and PTG was done using horseradish peroxidase (HRP)‐conjugated streptavidin (1:2500, 405210, Biolegend, San Diego, CA, USA) or a specific gliadin antibody (1:1000, clone XGY4, Zedira) and the corresponding secondary HRP‐conjugated antibody (1:1000; sc‐516102, Santa Cruz Biotechnology, Dallas, TX, USA). The HRP‐substrate tetramethylbenzidine (TMB, T0440, Sigma–Aldrich, Darmstadt, Germany) was added, and photometric quantitation at 655 nm was performed after 15 min using a Clariostar Plus microplate reader (BMG Labtech, Ortenberg, Germany).

Caco‐2 cells [3] = conditions: inhibitor 100 µM, TG2 100 nM, biotinylated P56-88 and P31-49; fluorometry
TG2 [4] = target: T1, TG2; experiment: Extracellular crosslinking of 5BP to the Caco-2 cell surface by TG2; format: cell-based; conditions: 5BP 500 µM, TG2 100 nM, 1 h; dose-dependent; fluorometry and confocal microscopy
Protocol: Confluent Caco‐2 cell monolayers were incubated with the transglutaminase substrate EZ‐link pentylamine‐biotin (5‐biotinamidopentylamine [5BP], 500 µM, 21345, Thermo Fisher Scientific) with or without mTG or TG2 (100 nM) in Tris buffer for 1 h. Corresponding transglutaminase inhibitors ERW1041 and mTG‐blocker were added to the solution at the indicated concentration. After fixation with 4% paraformaldehyde and blocking with 5% BSA, cells were incubated with streptavidin‐Alexa Fluor488 (S11223, 4 µg/mL, Thermo Fisher Scientific). Fluorometric quantitation was conducted using a FLUOstar Optima microplate reader (BMG Labtech, Ortenberg, Germany). For immunofluorescence microscopy, nuclei were stained with Hoechst dye (1:1000 in PBS, 44442, Thermo Fisher Scientific) for 10 min. Microscopy was done using a confocal laser scanning microscope (TE2000‐E, Nikon) and 20x Plan Apo […] objective. Image processing and quantitation were performed using ImageJ [32].

TG2 [5] = target: T1, TG2; experiment: Immunoblot of gliadin-transglutaminase complexes; format: biochemical; conditions: TG2 1 µM, ERW1041 100 µM, 30 min, 37°C, n = 3
Protocol: TG2 or mTG (1 µM) was incubated with gliadin peptides (Table 2) with or without ERW1041 as TG2 blocker or the mTG‐blocker (100 µM) in Tris buffer. Biotinylated gliadin peptides or PTG was added to the solution at the indicated concentrations, and incubation was performed for 30 min at 37°C. The reaction was stopped by placing the samples on ice. Detailed description of the conditions for electrophoresis and blotting have been published elsewhere. After blocking the membrane for 1 h with 5% nonfat dry milk in phosphate buffered saline (PBS) + 2.5% tween, incubation with the primary antibody was performed at 4°C overnight (Table 3). The next day, incubation with the corresponding HRP‐conjugated secondary antibody was done. The crosslinking of biotinylated gliadin peptides was detected by streptavidin‐HRP alone. Visualization was done with the Super‐Signal West Femto kit (34096, Thermo Fisher Scientific, Langenselbold, Germany) for 5 min. Image processing and quantitation were performed using a ChemiDoc XRS+ imager and Image Lab software (BioRad Laboratories, Feldkirchen, Germany).

Caco‐2 cells [6] = experiment: Cell viability, PrestoBlue HS assay; format: cell-based, human; conditions: used concentrations, 24 hours in culture medium; PrestoBlue HS 2 hours; Figure S1
Protocol: The effect of transglutaminases on the viability of Caco‐2 cells was investigated using the resazurin‐based PrestoBlue HS assay (P50200, Thermo Fisher Scientific) as described elsewhere. Details are provided in the Supporting Information.
Cells were incubated with mTG or TG2 at the indicated concentrations for 24 hours in culture medium. Incubation with PrestoBlue HS, diluted 1:10 in medium was performed for 2 hours at 37°C. Fluorometric examination was conducted using a Clariostar Plus microplate reader.

Molecule | Effect of inhibitor on TG2-enhanced cellular uptake of P56-88 (Caco‐2 cells [1]) | Effect of inhibitor on TG2-mediated crosslinking of PTG (TG2 [2]) | Effect of inhibitor on TG2-mediated gliadin peptide uptake (Caco‐2 cells [3]) | Effect of inhibitor on TG2-mediated crosslinking of 5BP to the cell surface (TG2 [4]) | Effect of inhibitor on transamidation of gliadin peptides to TG2 (TG2 [5]) | Effect on cell viability (Caco‐2 cells [6])
O=C(NC[C@@H]1CC(Br)=NO1)[C@@H]1CCCN1C(=O)OCc1cnc2ccccc2c1 [ERW1041] | reduced cellular peptide uptake to the baseline level | significantly reduced crosslinking of PTG | to the baseline level | reduced crosslinking of 5BP | significantly reduced transamidation of all gliadin peptides to TG2 | 
TG2: transglutaminase 2 (T022, Zedira) (protein, UniProt P21980 2-687, looked up) Protein-glutamine …: AEELVLERCDLELETNGRDHHTADLCREKLVVRRGQPFWLTLHFEGRNYEASVDSLTFSVVTGPAPSQEAGTKARFPLRDAVEEGDWTATVVDQQDCTLSLQLTTPANAPIGLYRLSLEASTGYQGSSFVLGHFILLFNAWCPADAVYLDSEEERQEYVLTQQGFIYQGSAKFIKNIPWNFGQFEDGILDICLILLDVNPKFLKNAGRDCSRRSSPVYVGRVVSGMVNCNDDQGVLLGRWDNNYGDGVSPMSWIGSVDILRRWKNHGCQRVKYGQCWVFAAVACTVLRCLGIPTRVVTNYNSAHDQNSNLLIEYFRNEFGEIQGDKSEMIWNFHCWVESWMTRPDLQPGYEGWQALDPTPQEKSEGTYCCGPVPVRAIKEGDLSTKYDAPFVFAEVNADVVDWIQQDDGSVHKSINRSLIVGLKISTKSVGRDEREDITHTYKYPEGSSEEREAFTRANHLNKLAEKEETGMAMRIRVGQSMNMGSDFDVFAHITNNTAEEYVCRLLLCARTVSYNGILGPECGTKYLLNLNLEPFSEKSVPLCILYEKYRDCLTESNLIKVRALLVEPVINSYLLAERDLYLENPEIKIRILGEPKQKRKLVAEVSLQNPLPVALEGCTFTVEGAGLTEEQKTVEIPDPVEAGEEVKVRMDLLPLHMGLHKLVVNFESDKLKAVKGFRNVIIGPA |  |  |  |  |  | did not affect cell viability
